What was measured:
[1] = system: enzalutamide-resistant PC; parameters: method as in PMID 31548294; details: cited from earlier work
[2] = biological target: JAK1 (Homo sapiens, UniProt P23458); assay: Radiometric filtration binding cell-free kinase assay; format: biochemical; parameters: purchased Reaction Biology (JAK1/2/3, TYK2); Luceome Biotechnologies KinaseSeeker (others); details: percent activity of kinase after exposure to IST5 1 µM
Experimental: (§1) For Jak1, Jak2, Jak3 and Tyk2, a radiometric filtration binding assay was conducted by Reaction Biologicals (Malvern, PA, USA) (Table 1). This radiometric assay is a cell-free assay which is based on conventional filter-binding assays, directly measuring kinase catalytic activity toward a specific substrate. For evaluation of the activity of the other kinases, the Kinase Seeker Technology was utilized (Luceome Biotechnologies, Tucson, AZ, USA), which is a luminescence-based cell-free assay. In this assay, the reassembly of luciferase fragments is mediated by the interaction of a kinase with an active site-dependent probe. The competitive displacement of the probe by an inhibitor is measured by a change in luminescence signal. Percent activity of each kinase after exposure to IST5 (1 µM) is presented.

[3] = biological target: JAK2 (Homo sapiens, UniProt O60674); assay: as above; format: biochemical; parameters: purchased Reaction Biology (JAK1/2/3, TYK2); Luceome Biotechnologies KinaseSeeker (others); details: percent activity of kinase after exposure to IST5 1 µM
Chain of JAK2 (O60674 whole entry): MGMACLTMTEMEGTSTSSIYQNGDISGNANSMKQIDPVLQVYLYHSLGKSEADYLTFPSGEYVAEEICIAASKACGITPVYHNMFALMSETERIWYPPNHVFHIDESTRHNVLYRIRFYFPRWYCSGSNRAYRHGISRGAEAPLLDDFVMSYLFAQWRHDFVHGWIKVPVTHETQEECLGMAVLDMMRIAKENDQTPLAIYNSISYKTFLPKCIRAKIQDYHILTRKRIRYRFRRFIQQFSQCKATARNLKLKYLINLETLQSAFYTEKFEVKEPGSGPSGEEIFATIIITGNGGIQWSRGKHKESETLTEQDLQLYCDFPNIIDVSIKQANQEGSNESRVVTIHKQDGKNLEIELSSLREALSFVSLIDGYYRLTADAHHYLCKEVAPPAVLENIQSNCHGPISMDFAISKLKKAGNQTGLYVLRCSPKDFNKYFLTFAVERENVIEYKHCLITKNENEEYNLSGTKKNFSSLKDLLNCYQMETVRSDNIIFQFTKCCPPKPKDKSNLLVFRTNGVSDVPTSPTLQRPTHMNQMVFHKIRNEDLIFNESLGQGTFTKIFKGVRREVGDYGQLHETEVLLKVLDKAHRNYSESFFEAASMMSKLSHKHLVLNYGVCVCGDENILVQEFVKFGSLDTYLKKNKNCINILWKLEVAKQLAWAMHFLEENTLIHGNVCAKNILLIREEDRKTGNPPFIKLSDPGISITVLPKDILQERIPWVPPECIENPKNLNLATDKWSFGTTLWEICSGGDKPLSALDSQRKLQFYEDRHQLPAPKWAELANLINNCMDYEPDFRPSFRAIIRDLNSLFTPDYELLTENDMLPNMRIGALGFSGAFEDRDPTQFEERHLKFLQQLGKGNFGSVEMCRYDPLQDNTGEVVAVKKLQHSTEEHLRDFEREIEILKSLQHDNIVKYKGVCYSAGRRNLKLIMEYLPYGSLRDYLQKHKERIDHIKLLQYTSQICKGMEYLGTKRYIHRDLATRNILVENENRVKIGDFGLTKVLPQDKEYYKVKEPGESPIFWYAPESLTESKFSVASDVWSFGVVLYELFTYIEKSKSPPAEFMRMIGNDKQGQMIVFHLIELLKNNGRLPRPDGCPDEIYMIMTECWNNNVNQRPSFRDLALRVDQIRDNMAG
Experimental: as §1

[4] = biological target: T1, JAK3 (Homo sapiens, UniProt P52333); assay: as above; format: biochemical; parameters: purchased Reaction Biology (JAK1/2/3, TYK2); Luceome Biotechnologies KinaseSeeker (others); details: percent activity of kinase after exposure to IST5 1 µM
T1 sequence (P52333 1-1124): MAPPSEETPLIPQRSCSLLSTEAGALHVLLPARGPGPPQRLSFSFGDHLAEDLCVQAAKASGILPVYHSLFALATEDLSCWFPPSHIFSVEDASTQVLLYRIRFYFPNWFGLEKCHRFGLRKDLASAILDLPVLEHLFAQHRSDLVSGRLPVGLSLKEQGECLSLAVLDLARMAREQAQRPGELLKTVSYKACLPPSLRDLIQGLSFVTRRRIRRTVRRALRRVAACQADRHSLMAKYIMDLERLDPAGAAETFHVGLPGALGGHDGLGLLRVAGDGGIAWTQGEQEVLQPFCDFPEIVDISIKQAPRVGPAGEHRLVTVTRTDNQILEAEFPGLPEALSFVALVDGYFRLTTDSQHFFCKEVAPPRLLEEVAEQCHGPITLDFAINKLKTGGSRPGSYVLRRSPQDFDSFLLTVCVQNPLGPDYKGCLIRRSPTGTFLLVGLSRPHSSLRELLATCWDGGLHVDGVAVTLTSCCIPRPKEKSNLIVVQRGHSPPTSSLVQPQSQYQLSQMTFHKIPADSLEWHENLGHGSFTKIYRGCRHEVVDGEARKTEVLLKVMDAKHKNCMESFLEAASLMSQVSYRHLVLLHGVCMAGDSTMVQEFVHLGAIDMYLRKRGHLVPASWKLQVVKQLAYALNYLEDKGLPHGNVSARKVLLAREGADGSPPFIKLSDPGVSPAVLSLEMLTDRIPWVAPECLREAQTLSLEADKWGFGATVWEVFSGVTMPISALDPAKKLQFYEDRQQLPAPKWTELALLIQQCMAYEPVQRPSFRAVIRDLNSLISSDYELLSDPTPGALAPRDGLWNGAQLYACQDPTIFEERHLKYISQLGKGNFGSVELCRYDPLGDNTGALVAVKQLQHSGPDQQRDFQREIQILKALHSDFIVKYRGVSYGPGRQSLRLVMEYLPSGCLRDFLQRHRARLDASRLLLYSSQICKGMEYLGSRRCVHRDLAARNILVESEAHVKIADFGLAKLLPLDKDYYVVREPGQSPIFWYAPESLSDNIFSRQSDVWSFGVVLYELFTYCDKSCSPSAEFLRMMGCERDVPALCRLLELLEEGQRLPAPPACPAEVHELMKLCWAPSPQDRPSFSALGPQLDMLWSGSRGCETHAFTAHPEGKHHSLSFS
Experimental: as §1

[5] = biological target: TYK2 (Homo sapiens, UniProt P29597); assay: as above; format: biochemical; parameters: purchased Reaction Biology (JAK1/2/3, TYK2); Luceome Biotechnologies KinaseSeeker (others); details: percent activity of kinase after exposure to IST5 1 µM
Chain of TYK2 (P29597 whole entry): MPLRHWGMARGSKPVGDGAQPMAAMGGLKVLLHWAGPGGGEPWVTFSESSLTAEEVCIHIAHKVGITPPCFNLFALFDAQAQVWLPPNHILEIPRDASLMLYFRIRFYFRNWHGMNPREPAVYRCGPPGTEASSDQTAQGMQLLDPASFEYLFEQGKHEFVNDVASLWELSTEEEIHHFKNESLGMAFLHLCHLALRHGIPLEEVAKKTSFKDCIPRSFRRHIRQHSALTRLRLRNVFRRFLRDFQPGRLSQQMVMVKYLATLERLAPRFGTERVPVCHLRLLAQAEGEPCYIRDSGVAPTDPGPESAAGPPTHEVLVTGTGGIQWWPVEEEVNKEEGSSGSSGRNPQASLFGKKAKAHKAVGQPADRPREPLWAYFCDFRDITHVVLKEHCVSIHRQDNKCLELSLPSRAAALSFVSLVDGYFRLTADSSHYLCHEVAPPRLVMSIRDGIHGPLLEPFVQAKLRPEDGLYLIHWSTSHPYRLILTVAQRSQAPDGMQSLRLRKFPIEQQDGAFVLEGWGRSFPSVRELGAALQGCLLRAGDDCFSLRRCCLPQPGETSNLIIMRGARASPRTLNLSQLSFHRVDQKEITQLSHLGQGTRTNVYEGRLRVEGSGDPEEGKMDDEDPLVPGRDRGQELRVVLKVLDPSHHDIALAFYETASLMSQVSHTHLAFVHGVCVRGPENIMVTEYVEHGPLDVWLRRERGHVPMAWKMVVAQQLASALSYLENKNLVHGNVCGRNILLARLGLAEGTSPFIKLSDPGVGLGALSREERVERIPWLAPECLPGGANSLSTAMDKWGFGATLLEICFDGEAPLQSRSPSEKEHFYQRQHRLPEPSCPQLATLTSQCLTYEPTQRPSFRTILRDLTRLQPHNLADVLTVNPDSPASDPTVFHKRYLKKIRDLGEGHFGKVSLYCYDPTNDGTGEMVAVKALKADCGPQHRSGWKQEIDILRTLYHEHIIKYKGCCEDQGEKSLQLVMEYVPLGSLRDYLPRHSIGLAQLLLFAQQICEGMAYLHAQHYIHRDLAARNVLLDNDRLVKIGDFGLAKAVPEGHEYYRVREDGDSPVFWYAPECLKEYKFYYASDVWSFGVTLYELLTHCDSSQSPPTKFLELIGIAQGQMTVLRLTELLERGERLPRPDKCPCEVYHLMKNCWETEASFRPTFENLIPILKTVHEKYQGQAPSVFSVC
Experimental: as §1

Chain of JAK1 (P23458 whole entry, the tested form may be a part): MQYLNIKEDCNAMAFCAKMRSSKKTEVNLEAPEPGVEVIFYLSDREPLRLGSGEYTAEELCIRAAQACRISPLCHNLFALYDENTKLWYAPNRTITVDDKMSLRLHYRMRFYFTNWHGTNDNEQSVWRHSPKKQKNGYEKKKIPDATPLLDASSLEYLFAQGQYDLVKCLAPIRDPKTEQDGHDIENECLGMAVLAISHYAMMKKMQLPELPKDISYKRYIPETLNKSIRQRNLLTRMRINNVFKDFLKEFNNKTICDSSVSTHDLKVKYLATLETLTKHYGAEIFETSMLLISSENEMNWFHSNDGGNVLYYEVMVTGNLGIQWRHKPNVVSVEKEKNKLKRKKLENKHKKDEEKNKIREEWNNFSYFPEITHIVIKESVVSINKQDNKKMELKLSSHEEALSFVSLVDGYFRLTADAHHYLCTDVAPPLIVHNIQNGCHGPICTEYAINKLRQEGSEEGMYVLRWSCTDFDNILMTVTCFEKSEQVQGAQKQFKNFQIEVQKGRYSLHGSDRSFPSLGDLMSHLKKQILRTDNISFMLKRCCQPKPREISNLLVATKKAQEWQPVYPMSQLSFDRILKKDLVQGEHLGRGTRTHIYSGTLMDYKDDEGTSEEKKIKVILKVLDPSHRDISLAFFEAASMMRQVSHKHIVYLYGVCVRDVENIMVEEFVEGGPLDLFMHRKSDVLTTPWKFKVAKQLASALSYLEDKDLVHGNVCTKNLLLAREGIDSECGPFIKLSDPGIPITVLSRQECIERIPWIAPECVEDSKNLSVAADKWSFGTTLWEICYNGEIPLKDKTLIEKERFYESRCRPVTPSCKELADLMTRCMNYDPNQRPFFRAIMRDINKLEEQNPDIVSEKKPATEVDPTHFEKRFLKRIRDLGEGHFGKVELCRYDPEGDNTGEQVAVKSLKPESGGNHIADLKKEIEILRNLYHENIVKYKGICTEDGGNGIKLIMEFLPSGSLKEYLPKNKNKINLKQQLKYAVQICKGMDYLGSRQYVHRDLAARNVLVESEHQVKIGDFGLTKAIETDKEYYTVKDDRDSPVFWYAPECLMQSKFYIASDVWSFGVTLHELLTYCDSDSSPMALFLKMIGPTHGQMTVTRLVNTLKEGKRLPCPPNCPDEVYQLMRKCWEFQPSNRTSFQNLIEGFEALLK

## O=P(O)(O)OCC1OC(n2cnc3c(NCc4ccccc4)ncnc32)C(O)C1O (centres unmarked) [IST5]
[1]
  enzalutamide-resistant PC growth in mice: blocks enzalutamide-resistant PC growth
[2]
  Activity: 96.2%
[3]
  Activity: 95.4%
[4]
  Activity: 100.0%
[5]
  Activity: 100.0%

Reference: article PMC7724566, “Prospects for Clinical Development of Stat5 Inhibitor IST5-002: High Transcriptomic Specificity in Prostate Cancer and Low Toxicity In Vivo” (Cancers, 2020)
